Data published in paper PMC6754346, “Compounds with capacity to quench the tyrosyl radical in Pseudomonas aeruginosa ribonucleotide reductase” (Journal of Biological Inorganic Chemistry, 2019).

Tests used:
[1] = target: P. aeruginosa RNR active holoenzyme (NrdA/B complex) (Pseudomonas aeruginosa, UniProt Q9I4I1+Q9I4I2); test: EPR, tyrosyl radical quenching in holoenzyme; format: biochemical; conditions: 133 µM compound, 12 µM each NrdA and NrdB, 5 mM ATP, 10 mM magnesium acetate, 30 mM DTT, 50 mM Tris pH 7.5; corrected for control decay
Text: EPR, tyrosyl radical quenching in holoenzyme on P. aeruginosa RNR active holoenzyme (NrdA/B complex)

NrdB = target: T1, NrdB (Pseudomonas aeruginosa, UniProt Q9I4I2); test: EPR, tyrosyl radical quenching; format: biochemical; conditions: 133 µM compound, 15 µM Fe-reconstituted NrdB, 50 mM Tris pH 7.5, 1% DMSO, no DTT; corrected for control decay
T1 construct: homodimer concentrations; apoNrdB reconstituted with Fe2+ for EPR
Text: EPR, tyrosyl radical quenching on NrdB

Sequence of P. aeruginosa RNR active holoenzyme (NrdA/B complex) (Q9I4I1 1-963): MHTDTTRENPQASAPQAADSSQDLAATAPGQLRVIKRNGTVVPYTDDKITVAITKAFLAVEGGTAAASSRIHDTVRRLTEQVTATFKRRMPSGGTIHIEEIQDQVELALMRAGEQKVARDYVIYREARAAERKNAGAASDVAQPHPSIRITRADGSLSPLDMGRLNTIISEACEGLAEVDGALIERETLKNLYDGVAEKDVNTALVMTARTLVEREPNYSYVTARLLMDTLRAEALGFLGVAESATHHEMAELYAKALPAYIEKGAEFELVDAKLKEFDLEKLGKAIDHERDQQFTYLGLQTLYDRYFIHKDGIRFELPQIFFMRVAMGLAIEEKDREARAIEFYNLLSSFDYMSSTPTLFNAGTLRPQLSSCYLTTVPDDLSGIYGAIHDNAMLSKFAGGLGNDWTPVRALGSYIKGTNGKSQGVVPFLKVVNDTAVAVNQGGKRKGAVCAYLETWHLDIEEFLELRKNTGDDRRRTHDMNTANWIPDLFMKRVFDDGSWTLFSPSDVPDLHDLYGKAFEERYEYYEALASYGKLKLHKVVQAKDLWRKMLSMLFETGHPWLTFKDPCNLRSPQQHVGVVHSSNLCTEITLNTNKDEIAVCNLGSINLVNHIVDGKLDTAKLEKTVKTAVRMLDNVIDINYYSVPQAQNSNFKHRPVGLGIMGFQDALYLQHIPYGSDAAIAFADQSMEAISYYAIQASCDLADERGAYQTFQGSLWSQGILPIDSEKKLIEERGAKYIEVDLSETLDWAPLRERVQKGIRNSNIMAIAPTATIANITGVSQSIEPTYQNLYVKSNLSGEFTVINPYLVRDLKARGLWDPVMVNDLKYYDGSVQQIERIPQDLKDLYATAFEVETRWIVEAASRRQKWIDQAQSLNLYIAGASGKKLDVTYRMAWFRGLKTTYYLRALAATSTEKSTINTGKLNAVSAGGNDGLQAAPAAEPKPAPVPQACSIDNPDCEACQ
Sequence of P. aeruginosa RNR active holoenzyme (NrdA/B complex) (Q9I4I2 1-415): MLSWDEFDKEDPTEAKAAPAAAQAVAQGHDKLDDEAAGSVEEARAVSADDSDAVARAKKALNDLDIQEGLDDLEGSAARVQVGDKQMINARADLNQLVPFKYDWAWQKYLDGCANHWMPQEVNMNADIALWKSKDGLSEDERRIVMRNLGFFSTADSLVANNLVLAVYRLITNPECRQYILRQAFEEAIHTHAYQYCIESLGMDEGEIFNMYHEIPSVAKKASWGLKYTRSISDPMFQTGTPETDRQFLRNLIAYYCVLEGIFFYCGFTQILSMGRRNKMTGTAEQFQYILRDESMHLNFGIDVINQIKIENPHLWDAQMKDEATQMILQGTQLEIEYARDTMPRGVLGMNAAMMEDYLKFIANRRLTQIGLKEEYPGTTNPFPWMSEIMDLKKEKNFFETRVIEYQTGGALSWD
T1 sequence (Q9I4I2 1-415): as above

Structure (SMILES)	Tyrosyl radical decay rate [1] [min⁻¹]	Tyrosyl radical decay rate and radical left after 10 min / NrdB only^a (NrdB) [min⁻¹]
COc1ccc(C2=NC(=O)NC2c2ccc(OC)cc2)cc1 (stereo not drawn) [compound 26692, NSC26692]	0.18 ± 0.19	
COc1cc(-c2ccc(Nc3ccccc3C(=O)O)c(OC)c2)ccc1Nc1ccccc1C(=O)O [compound 73735, NSC73735]	0.67 ± 0.01	
CCc1oc2ccccc2c1C(=O)c1cc(Br)c(O)c(Br)c1 [compound 85433, NSC85433]	0.33 ± 0.03	
CC(=O)c1cc(O)c2ccccc2c1O [compound 111552, NSC111552]	0.43 ± 0.32	0.19 ± 0.03
N#Cc1c(C#N)c(O)c2ccccc2c1O [compound 128281, NSC128281]	0.43 ± 0.03	0.30 ± 0.07
CCOC(=O)/C=C(/C)Sc1cc(O)c2ccccc2c1O [compound 278631, NSC278631]		0.40 ± 0.06
O=C(Nc1ccc(Cl)c(Cl)c1)Nc1ccccc1O [compound 522131, NSC522131]		0.35 ± 0.04
